Assay results as given in US8263649B2, “Benzofuran type derivatives, a composition comprising the same for treating or preventing cognitive dysfunction and the use thereof” (Medifron DBT Co., Ltd., priority 2006, dated 2012).

Key:
[1] = tested on: ChAT positive neuron; assay: ChAT antibody staining of brain sections of transgenic mice; type: in vivo, mouse; details: FIG. 15
Description: (§1) 13 months old dementia model male mice expressing APPswe was used in the experiment and the mice was divided into two groups, i.e., control group consisting of 2 mice and test groups consisting of 4 mice. Each mouse had been fed with the feed mixed with 3 mg of compound IIb everyday for 4 months.
Four tissue sections per mouse were added to PBST to flocculate and then anti-ChAT was added thereto with a ratio of 1:100. The solution was reacted together for overnight at 4° C. and the tissues were washed with PBST. Secondary antibody (HRP conjugated […] IgG antibody) was added thereto and mixed together with the mixed ratio of 1:1000 at room temperature one hour before the reaction.
After washing again with PBST, the tissues were stained to brown color with DAB kit as a staining agent. The stained tissues were photographed using by optical microscope connecting with […] camera and then the number of the ChAT positive neuron in the tissues was determined.

[2] = target: T1, beta amyloid 1-42 (Homo sapiens, UniProt P05067); assay: Inhibition test of beta amyloid aggregation (Thioflavin T fluorescence); type: biochemical; details: FIG. 1
T1 construct: Synthetic beta amyloid 1-42 (BACHEM); purchased BACHEM; host or cells: synthetic peptide
T1 sequence (P05067 672-713): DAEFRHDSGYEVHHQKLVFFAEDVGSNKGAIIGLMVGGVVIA
Description: Synthetic beta amyloid 1-42 (BACHEM) was dissolved in DMSO in order to 250 μm solution and diluted with PBS into 1/10 on fluorescent black plate to induce aggregation. By comparing with inhibition activity of the tanshinone compounds prepared in Example 1 on beta amyloid aggregation, the test sample showing more than 50% inhibition activity at 10 μg/ml was chosen to use and added to react for 1 hour at room temperature. ThT (Thioflavin T) was diluted with 50 mM glycine buffer solution and the diluted solution was added to each well by 150 μl/well. The absorbance was determined by microplate reader (SAFIRE, TECAN) at 450 nm excitation wavelength/480 nm emission wavelength and the inhibition activity of the test sample on beta amyloid aggregation was transformed into IC50.

[3] = tested on: A 42; assay: ELISA of beta-amyloid in brain of transgenic mice (A 42); type: in vivo, mouse; details: APPswe mice treated for 4 months
Description: as §1
(§2) At the end of behavior test, the brain of mouse was delivered and the left hemisphere was frozen to be used as a cryo-section material. The remaining right hemisphere was used to measure the formation of beta-amyloid according to the procedure disclosed in the literature (J. Neurosci, 21(12), pp 4183-4187, 2001). […]
(§3) The amount of beta-amyloid in the brains of mice was determined by […] ELISA method according to the manual provided from Biosource Co and ELISA kit (KHB 3482, Biosource Co.) was used in the experiment. […] The level of color reaction was determined at 450 nm using by spectrophotometer and the absolute amount of beta-amyloid in the samples was transformed by comparing with standard value. The brain of the mice treated with the compound 18b for 4 months was delivered and the amount of beta-amyloid in supernatant obtained from the dissolved brain tissue was determined according to ELISA method.

[4] = target: T2, aggregated beta amyloid Ab(1-42) (Homo sapiens, UniProt P05067); assay: Inhibition test of beta amyloid aggregation lysis (Thioflavin T fluorescence); type: biochemical; details: FIG. 1
T2 construct: Synthetic beta amyloid, Ab(1-42) [Bachem Cat. No. H1368; H-Asp-Ala-Glu- Phe-Arg-His-Asp-Ser-Gly-Tyr; purchased Bachem H1368; host or cells: synthetic peptide
T2 sequence (P05067 672-713): as above
Description: Synthetic beta amyloid, Ab(1-42) [Bachem Cat. No. H1368; H-Asp-Ala-Glu- Phe-Arg-His-Asp-Ser-Gly-Tyr-Glu-Val-His-His-Gln-Lys-Leu-Val-Phe-Phe-Ala-Glu- Asp-Val-Gly-Ser-Asn-Lys-Gly-Ala-Ile-Ile-Gly-Leu-Met-Val-Gly-Gly-Val-Val-Ile- Ala-OH]) was dissolved in DMSO in order that it induces aggregation at the concentration of 25 microM for 1 week. The test group added with aggregated betaamyloid and test samples inhibiting the inhibition of aggregation and a control group added with only A were reacted together at room temperature for 1 hour on fluorescent black plate. ThT (Thioflavin T) was diluted with 50 mM glycine buffer solution to be […] and the diluted solutions were added to each well by 150 μl/well. The fluorescence intensity of each group was determined by microplate reader (SAFIRE, TECAN) at 450 nm excitation wavelength/480 nm emission wavelength after shaking together for 10 seconds.

[5] = tested on: A 40; assay: ELISA of beta-amyloid in brain of transgenic mice (A 40); type: in vivo, mouse; details: APPswe mice treated for 4 months; no significance statistically; FIG. 13
Description: as §1, §2, §3

## COCCCc1ccc2oc(-c3ccc(OC)c(OC)c3)cc2c1 [Compound 18b, 2-(3,4-dimethoxy-phenyl)-5-(3-methoxy-propyl)-benzofuran]
[1]
  number of neuron (ChAT positive) in brain: slightly increased
[2]
  inhibitory effect on the aggregation of beta amyloid: most potent inhibitory effect
[3]
  change of the amount of A 42 in brain (ELISA): no difference
[4]
  solubilizing activity of beta-amyloid: potent solubilizing activity
[5]
  amount of A 40 in brain (ELISA): slightly reduced
